Laboratory results taken from ChEMBL document CHEMBL1201862, “PubChem BioAssay data set” (2004).
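These data come from cells grown in 96-well plates and exposed to compound for 48 hours at five concentrations. The concentration for 50% growth inhibition is given as GI50.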 The source made the active and inactive calls. Cut-off read from the data, not from the text of the source: active = GI50 up to about 1.1 µM and inactive = higher.

How the values were obtained:
Experiment in all cases: inhibition of tumour cell growth, NCI panel, 48 h
ACHN = system: ACHN
CAKI-1 = system: CAKI-1
COLO 205 = system: COLO 205
HL-60 = system: HL-60
HOP-62 = system: HOP-62
Hs-578T = system: Hs-578T
LOX IMVI = system: LOX IMVI
M14 = system: M14
MDA-MB-435 = system: MDA-MB-435
NCI-H226 = system: NCI-H226
NCI-H23 = system: NCI-H23
NCI-H522 = system: NCI-H522
NCI/ADR-RES = system: NCI/ADR-RES
RPMI-8226 = system: RPMI-8226
SF-295 = system: SF-295
SF-539 = system: SF-539
SK-MEL-5 = system: SK-MEL-5
SW-620 = system: SW-620
UACC-257 = system: UACC-257
SF-268 = system: SF-268

Measured: GI50

C[N+]1(C)C2CC(OC(=O)C(CO)c3ccccc3)CC1C1OC12 (centres undefined)
inactive: ACHN > 100 µM | CAKI-1 > 100 µM | COLO 205 > 100 µM | HL-60 > 100 µM | HOP-62 > 100 µM | Hs-578T > 100 µM | LOX IMVI > 100 µM | M14 > 100 µM | MDA-MB-435 > 100 µM | NCI-H226 > 100 µM | NCI-H23 > 100 µM | NCI-H522 > 100 µM | NCI/ADR-RES > 100 µM | RPMI-8226 > 100 µM | SF-295 > 100 µM | SF-539 > 100 µM | SK-MEL-5 > 100 µM | SW-620 > 100 µM | UACC-257 > 100 µM

CC(C)=NN/C(=N\c1ccc(Cl)cc1)NS(=O)(=O)c1cc2ccccc2s1
inactive: CAKI-1 97.9 µM | COLO 205 46.5 µM | HL-60 29.2 µM | HOP-62 > 100 µM | Hs-578T > 100 µM | LOX IMVI 77.3 µM | M14 56.5 µM | MDA-MB-435 36.7 µM | NCI-H226 > 100 µM | NCI-H23 76 µM | NCI-H522 38.5 µM | NCI/ADR-RES 51.1 µM | RPMI-8226 29 µM | SF-268 76.7 µM | SF-295 57.5 µM | SK-MEL-5 > 100 µM | SW-620 > 100 µM | UACC-257 55.3 µM

O=C(/C=C1\Nc2ccccc2N=C1NC12CC3CC(CC(C3)C1)C2)c1ccc(Br)cc1
inactive: ACHN > 10 µM | CAKI-1 > 10 µM | COLO 205 > 10 µM | HL-60 > 10 µM | HOP-62 > 10 µM | Hs-578T > 10 µM | LOX IMVI > 10 µM | M14 > 10 µM | MDA-MB-435 > 10 µM | NCI-H226 > 10 µM | NCI-H23 > 10 µM | NCI-H522 > 10 µM | NCI/ADR-RES > 10 µM | RPMI-8226 > 10 µM | SF-268 > 10 µM | SF-295 > 10 µM | SF-539 > 10 µM | SK-MEL-5 > 10 µM | SW-620 > 10 µM | UACC-257 > 10 µM

COc1ccc(C2=Nn3c(C)nnc3S/C2=C\c2ccc(-c3ccc([N+](=O)[O-])cc3)o2)cc1
inactive: ACHN 11.7 µM | CAKI-1 14.5 µM | HL-60 5.12 µM | HOP-62 24.4 µM | Hs-578T 49.4 µM | LOX IMVI 6.03 µM | M14 17.7 µM | MDA-MB-435 3.78 µM | NCI-H226 27.2 µM | NCI-H23 13.9 µM | NCI-H522 6.34 µM | NCI/ADR-RES 7.85 µM | RPMI-8226 3.22 µM | SF-268 12.3 µM | SF-295 38 µM | SF-539 5.51 µM | SK-MEL-5 19 µM | UACC-257 17.3 µM

O=C1NC(Nc2cccc(Cl)c2)=N/C1=C\c1ccc(Cl)c(Cl)c1
inactive: ACHN 5.05 µM | CAKI-1 4.6 µM | COLO 205 3.88 µM | HL-60 1.95 µM | HOP-62 8.79 µM | Hs-578T 3.04 µM | LOX IMVI 2.14 µM | M14 4.42 µM | MDA-MB-435 4.85 µM | NCI-H226 3.44 µM | NCI-H23 3.44 µM | NCI-H522 2.52 µM | NCI/ADR-RES 4.04 µM | RPMI-8226 3.99 µM | SF-268 4.94 µM | SF-295 4.05 µM | SF-539 9.31 µM | SK-MEL-5 6.18 µM | SW-620 3.68 µM | UACC-257 8.07 µM

Cc1ccc(/C=C2\CCCc3ccccc3C2=O)cc1
inactive: ACHN 31.8 µM | CAKI-1 27.2 µM | COLO 205 4.94 µM | HL-60 11.2 µM | HOP-62 9.2 µM | Hs-578T 12.4 µM | LOX IMVI 14.9 µM | M14 3.21 µM | MDA-MB-435 2.6 µM | NCI-H226 6.46 µM | NCI-H23 9.2 µM | NCI-H522 6.25 µM | NCI/ADR-RES 8.67 µM | RPMI-8226 16.3 µM | SF-268 11.2 µM | SF-295 3.45 µM | SF-539 13.8 µM | SW-620 22.9 µM | UACC-257 21.9 µM
